Laboratory results as given in US10052331B2, “3-(3H-imidazo[4,5-C]pyridin-2-yl)-1H-pyrazolo[3,4-C]pyridine and therapeutic uses thereof” (Samumed, LLC, priority 2014, dated 2018).

Experiments:
Type in all cases: cell-based
[1] = system: Wnt activity (Wnt-responsive Sp5 promoter-luciferase reporter in SW480 cells); assay: Wnt activity screening assay: Sp5-Luc reporter gene in SW480 colon carcinoma cells; conditions: Homo sapiens
Procedure, shortened: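 IC50 values come from variable-slope four-parameter fits of luciferase signal normalized to DMSO wells. Stable Sp5-Luc reporter SW480 colon carcinoma cells were exposed to compounds in a 3-fold dilution series (source plates from 10 mM stock) for forty-two hours at 37 °C.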

[2] = system: primary human mesenchymal stem cells (hMSCs); assay: Chondrogenesis induction in primary human mesenchymal stem cells (nodule imaging, Rhodamine B/Nile Red); conditions: 144 h, 6 days; for EC (100% TGF-beta3 activity): concentration required to induce chondrogenesis equivalent to TGF-β3 positive control, read-out: Conc (nM) of 100% TGF-β3 activity; for Emax: relative to TGF-β3 (10 ng/mL) positive control, read-out: Max. Activity as % TGF-β3 activity
Protocol: The above synthesized compounds were screened using primary human mesenchymal stem cells (hMSCs) to determine their ability to induce chondrogenesis (process by which cartilage is developed).
Primary human mesenchymal stem cells (hMSCs) were purchased from Lonza (Walkersville, Md.) and expanded in Mesenchymal Stem Cell Growth Media (Lonza). Cells between passage 3 and 6 were used for the experiments.
Each compound was dissolved in DMSO as a 10 mM stock and used to prepare compound source plates. Serial dilution (1:3, 6-point dose-response curves from 2700 nM to 10 nM) and compound transfer was performed using the ECHO 550 (Labcyte, Sunnyvale, Calif.) into 96-well clear bottom assay plates (Greiner Bio-One) with appropriate DMSO backfill for a final DMSO concentration of 0.03%. hMSCs were plated at 20,000 cells/well in 250 μL/well Incomplete Chondrogenic Induction Medium (Lonza; DMEM, dexamethasone, ascorbate, insulin-transferrin-selenium [ITS supplement], gentamycin-amphotericin [GA-1000], sodium pyruvate, proline and L-glutamine). TGF-β3 (10 ng/mL) was used as a positive control for differentiation while negative control wells were treated with 75 nL DMSO for normalization and calculating EC50 values. Cells were incubated at 37° C. and 5% CO2 for 6 days. To image chondrogenic nodules, the cells were fixed using 4% formaldehyde (Electron Microscopy Sciences), and stained with 2 μg/mL Rhodamine B (Sigma-Aldrich) and 20 μM Nile Red (Sigma-Aldrich) [Johnson K., et. al, A Stem Cell-Based Approach to Cartilage Repair, Science, (2012), 336(6082), 717-721]. The nodules imaged (4 images per well at 4× magnification) by excitation at 531 nm and emission at 625 nm and quantified using the CellInsight CX5 (Thermo Scientific). Number of nodules in each well was normalized to the average of 3 DMSO treated wells on the same plate using Excel (Microsoft Inc.). The normalized averages (fold change over DMSO) of 3 replicate wells for each compound concentration were calculated. Due to solubility limitations of some of the compounds, curve fitting was incomplete leading to inaccurate EC50 determinations.
Using TGF-03 as a positive control, the concentration of test compounds required to induce equivalent levels of chondrogenesis is reported. In addition, the maximum activity of each compound and the respective dose that each compound reached maximum chondrogenesis activity is reported.

[3] = system: primary human fibroblasts derived from IPF patients (LL29 cells); assay: Inhibition of fibrotic process: αSMA staining in TGF-β1-treated primary human fibroblasts from IPF patients (LL29 cells); conditions: Fibroblast, 96 h, LL29 cells treated with TGF-β1 (20 ng/mL), 4 days, 11-point dose-response from 10 μM to 1.87 nM, read-out: Inhibition of fibrosis EC50
Procedure, shortened: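 LL29 IPF lung fibroblasts in F12 with 1% FBS, compound (11-point, 10 μM to 1.87 nM, 0.1% DMSO) plus TGF-β1 20 ng/mL for 4 days at 37° C. αSMA-positive % of SYTOX-negative cells by immunofluorescence imaging, normalized to TGF-β1 wells; EC50 from non-linear regression of triplicates.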

Row | SMILES | IC50 [1] | EC (100% TGF-beta3 activity) [2] | Emax [2] | EC50 [3]
1 | CCNCc1cncc(-c2cc3c(-c4nc5c(-c6cccc(F)c6)cncc5[nH]4)n[nH]c3cn2)c1 [Compound 6, N-((5-(3-(7-(3-Fluorophenyl)-3H-imidazo[4,5-c]pyridin-2-yl)-1H-pyrazolo[3,4-c]pyridin-5-yl)pyridin-3-yl)methyl)ethanamine] | 0.0135 µM | 136 nM | 300% | 0.511 µM
2 | CCNCc1cncc(-c2cc3c(-c4nc5c(-c6ccc(F)cc6)cncc5[nH]4)n[nH]c3cn2)c1 [Compound 32, N-((5-(3-(7-(4-Fluorophenyl)-3H-imidazo[4,5-c]pyridin-2-yl)-1H-pyrazolo[3,4-c]pyridin-5-yl)pyridin-3-yl)methyl)ethanamine] | 0.0143 µM | 110 nM |  | ≤ 0.009 µM
3 | FC1(F)CCN(Cc2cncc(-c3cc4c(-c5nc6c(N7CCCCC7)cncc6[nH]5)n[nH]c4cn3)c2)C1 [Compound 181, 5-(5-((3,3-Difluoropyrrolidin-1-yl)methyl)pyridin-3-yl)-3-(7-(piperidin-1-yl)-3H-imidazo[4,5-c]pyridin-2-yl)-1H-pyrazolo[3,4-c]pyridine] | 0.0448 µM | 100 nM | 10% | ≤ 0.009 µM
4 | CCCC(=O)Nc1cncc(-c2cc3c(-c4nc5c(-c6ccsc6)cncc5[nH]4)n[nH]c3cn2)c1 [Compound 251, N-(5-(3-(7-(Thiophen-3-yl)-3H-imidazo[4,5-c]pyridin-2-yl)-1H-pyrazolo[3,4-c]pyridin-5-yl)pyridin-3-yl)butyramide] | 0.033 µM | 42 nM |  | ≤ 0.009 µM
5 | Cc1ccc(-c2cncc3[nH]c(-c4n[nH]c5cnc(-c6cncc(N)c6)cc45)nc23)s1 [Compound 341, 5-(3-(7-(5-Methylthiophen-2-yl)-3H-imidazo[4,5-c]pyridin-2-yl)-1H-pyrazolo[3,4-c]pyridin-5-yl)pyridin-3-amine] | 0.0058 µM | 162 nM | 100% | ≤ 0.009 µM
6 | Cc1ccc(-c2cncc3[nH]c(-c4n[nH]c5cnc(-c6cncc(NC(=O)C7CCC7)c6)cc45)nc23)s1 [Compound 358, N-(5-(3-(7-(5-Methylthiophen-2-yl)-3H-imidazo[4,5-c]pyridin-2-yl)-1H-pyrazolo[3,4-c]pyridin-5-yl)pyridin-3-yl)cyclobutanecarboxamide] | 0.0067 µM | 231 nM | 100% | 0.019 µM

Now from value to compound, other results behind:

Row | IC50 [1] | SMILES | EC (100% TGF-beta3 activity) [2] | Emax [2] | EC50 [3]
7 | 0.0306 µM | CCC(=O)Nc1cncc(-c2cc3c(-c4nc5c(-c6cccs6)cncc5[nH]4)n[nH]c3cn2)c1 [Compound 287, N-(5-(3-(7-(Thiophen-2-yl)-3H-imidazo[4,5-c]pyridin-2-yl)-1H-pyrazolo[3,4-c]pyridin-5-yl)pyridin-3-yl)propionamide] | 84.2 nM | 300% | 0.319 µM
8 | 0.0074 µM | CC(C)CC(=O)Nc1cncc(-c2cc3c(-c4nc5c(-c6ccc(F)s6)cncc5[nH]4)n[nH]c3cn2)c1 [Compound 314, N-(5-(3-(7-(5-Fluorothiophen-2-yl)-3H-imidazo[4,5-c]pyridin-2-yl)-1H-pyrazolo[3,4-c]pyridin-5-yl)pyridin-3-yl)-3-methylbutanamide] | 180 nM | 900% | 0.173 µM
9 | 0.0037 µM | CC(C)(C)C(=O)Nc1cncc(-c2cc3c(-c4nc5c(-c6ccc(F)s6)cncc5[nH]4)n[nH]c3cn2)c1 [Compound 320, N-(5-(3-(7-(5-Fluorothiophen-2-yl)-3H-imidazo[4,5-c]pyridin-2-yl)-1H-pyrazolo[3,4-c]pyridin-5-yl)pyridin-3-yl)pivalamide] | 41 nM |  | 0.103 µM
